27 compounds from patent publication US20160075653A1, “NEMATICIDAL N-(PHENYLCYCLOALKYL)CARBOXAMIDES AND N-(PHENYLCYCLOALKYL)THIOCARBOXAMIDES” (BAYER CROPSCIENCE AKTIENGESELLSCHAFT, priority 2013, published 2016) can be followed below.

SMILES strings stand for the structures.

The nature of one series: Measurement of log P values by HPLC on reversed phase columns (methods [a] pH 2.3, [b] pH 2.7, [c] pH 7.8). It counts as physicochemical. The note with it: HPLC on reversed phase column, method [b], pH 2.7. As to the method:
Measurement of log P-Values:
Measurement of log P Values was Performed According EEC Directive 79/831 Annex V.A8 by HPLC (High Performance Liquid
Chromatography) on reversed phase columns with the following methods: ^[a] Measurement was done at pH 2.3 with 0.1% phosphoric acid and acetonitrile as eluent with a linear gradient from 10% acetonitrile to 95% acetonitrile. ^[b] measurement of LC-MS was done at pH 2.7 with 0.1% formic acid in water and with acetonitrile (contains 0.1% formic acid) as eluent with a linear gradient from 10% acetonitrile to 95% acetonitrile. ^[c] Measurement with LC-MS was done at pH 7.8 with 0.001 molar ammonium hydrogen carbonate solution in water as eluent with a linear gradient from 10% acetonitrile to 95% acetonitrile.
Calibration was done with linear alkan-2-ones (with 3 to 16 carbon atoms) with known log P-values (measurement of log P values using retention times with linear interpolation between successive alkanones). Lambda-max-values were determined using UV-spectra from 200 nm to 400 nm and the peak values of the chromatographic signals.
For `N#Cc1ccccc1C(=O)N[C@@H]1C[C@@H]1c1ccc(Cl)cc1Cl` (relative stereo) [Example 650], the logP was 2.72^[b].

In the case of `O=C(N[C@@H]1CC[C@H]1c1ccc(Cl)cc1Cl)c1cccnc1` (relative stereo) [Example 662], the logP was 2.58^[b].

With `O=C(N[C@@H]1CC[C@H]1c1ccc(Cl)cc1Cl)c1ccccc1[N+](=O)[O-]` (relative stereo) [Example 672], the logP is 3.47^[b].

The series is the same for the next values; noted with them: HPLC on reversed phase column, method [c], pH 7.8.
Turning to `N#Cc1ccccc1C(=O)N[C@@H]1C[C@@H]1c1ccc(Cl)cc1Cl` (relative stereo) [Example 650], the logP was 2.70^[c];.

Staying with this series, now noted: HPLC on reversed phase columns, method [b], pH 2.7.
As for `Cc1occc1C(=O)N[C@@H]1CCC[C@@H]1c1ccc(F)c(F)c1` (relative stereo) [Example 59], the logP was 3.06^[b].

Take `O=C(NC1CCC1c1c(Cl)cccc1Cl)c1ccccc1` (stereo not shown) [Example 728]: the logP is 3.30^[b].

Turning to `Cn1cc(C(=O)NC2CCC2c2c(Cl)cccc2Cl)c(C(F)F)n1` (stereo not shown) [Example 726], the logP is 2.90^[b].

Regarding `Cc1ncccc1C(=O)N[C@@H]1CCC[C@H]1c1ccc(F)c(F)c1` (relative stereo) [Example 63], the logP is 1.75^[b].

As for `Cc1nc(Br)sc1C(=O)N[C@@H]1CCC[C@@H]1c1ccc(F)c(F)c1` (relative stereo) [Example 123], the logP is 3.46^[b].

As to `Cc1cccnc1C(=O)N[C@@H]1CCC[C@H]1c1ccc(F)c(F)c1` (relative stereo) [Example 103], the logP is 3.33^[b].

On to `Cc1nc(C(F)(F)F)c(C(=O)NC2CC2c2ccccc2)s1` (stereo not shown) [Example 8], for which the logP is 2.66^[b].

Turning to `O=C(N[C@@H]1C[C@H]1c1ccccc1)c1ccccc1I` (relative stereo) [Example 44], the logP is 2.93^[b].

Still in this series, the particulars now being: HPLC reversed phase, method [b] (pH 2.7).
With `O=C(N[C@@H]1CC[C@H]1c1ccc(F)cc1C(F)(F)F)c1ccccc1Cl` (relative stereo) [Example 512], the logP is 3.56^[b].

For `O=C(NC1CCCC1c1c(F)cccc1F)c1c(F)cccc1F` (stereo not shown) [Example 314], the logP is 3.05^[b].

On to `Cn1cc(C(=O)NC2CCCC2c2ccccc2C(F)(F)F)c(C(F)F)n1` (stereo not shown) [Example 287], for which the logP is 3.06^[b].

For `O=C(NC1CCCC1c1ccc(Cl)cc1)c1ccccc1Cl` (stereo not shown) [Example 278], the logP is 3.45^[b].

Take `O=C(N[C@@H]1CC[C@H]1c1ccc(Cl)cc1Cl)c1ncccc1Cl` (relative stereo) [Example 257]: the logP is 3.69^[b].

For `O=C(N[C@@H]1CC[C@H]1c1ccc(F)cc1C(F)(F)F)c1ccccc1` (relative stereo) [Example 504], the logP is 3.42^[b].

As to `O=C(N[C@@H]1CCC[C@@H]1c1ccc(C(F)(F)F)cc1)c1nccnc1C(F)(F)F` (relative stereo) [Example 330], the logP was 3.55^[b].

For `O=C(NC1CCCC1c1ccccc1Cl)c1c(F)cccc1F` (stereo not shown) [Example 391], the logP is 3.18^[b].

As for `O=C(N[C@@H]1CCC[C@@H]1c1ccc(C(F)(F)F)cc1)c1sccc1I` (relative stereo) [Example 360], the logP is 4.21^[b].

Turning to `Cc1nn(C)cc1C(=O)NC1CCCCC1c1ccccc1Cl` (stereo not shown) [Example 377], the logP was 2.64^[b].

Still in this series, the particulars now being: HPLC reversed phase, method [c] pH 7.8.
With `O=C(N[C@@H]1CCC[C@@H]1c1ccc(C(F)(F)F)cc1)c1nccnc1C(F)(F)F` (relative stereo) [Example 330], the logP is 3.45^[c];.

As to `O=C(N[C@@H]1CCC[C@@H]1c1ccc(C(F)(F)F)cc1)c1sccc1I` (relative stereo) [Example 360], the logP was 4.16^[c];.

Still in this series, the particulars now being: method [b], HPLC reversed phase, pH 2.7.
Take `Cn1nc(C(F)F)c(C(=O)N(C2CC2)C2CCCCC2(C)c2ccccc2)c1F` (stereo not shown) [Example 180]: the logP was 4.18^[b].

With `FC(F)(F)c1ccccc1C(=S)NC1CC1c1ccccc1` (stereo not shown) [Example 148], the logP was 3.69^[b].

Take `Cn1nc(C(F)F)c(C(=O)NC2CC2c2cccc(F)c2)c1Cl` (stereo not shown) [Example 191]: the logP is 2.75^[b].

For the compound `O=C(NC1CC1c1ccc(Cl)cc1Cl)c1ccccc1Cl` (stereo not shown) [Example 206], the logP was 3.57^[b].

For the compound `Cn1nc(C(F)F)c(C(=O)NC2CCCCC2c2ccccc2)c1Cl` (stereo not shown) [Example 184], the logP is 3.33^[b].

The series is the same for the next values; noted with them: method [c], HPLC reversed phase, pH 7.8.
Regarding `O=C(NC1CC1c1ccc(Cl)cc1Cl)c1ccccc1Cl` (stereo not shown) [Example 206], the logP is 3.47^[c];.

The series is the same for the next values; noted with them: reversed phase HPLC columns, pH 2.7, HPLC on reversed phase columns, method [b] (pH 2.7); read-out: logP.
`O=C(N[C@@H]1CC[C@@H]1c1c(Cl)cccc1Cl)c1ccccc1C(F)(F)F` [Example 736]: the chromatographic logP was found to be 3.71.
